Each structure is given as a SMILES string.

The series is described as follows: method code SF-GLC, from DOI: 10.1584/jpestics.5.553.
A word on the logP: it is the decadic logarithm of the partition coefficient of the neutral form, usually between octanol and water. Low values mean a more hydrophilic compound, high ones a more lipophilic compound. Compound `CCCCOC(=O)C(C(=O)OCCCC)=C1SCCS1` gave a logP of 4.6.
`CSC(SC)=C(C(=O)OC(C)C)C(=O)OC(C)C` displayed a logP of 3.38.
In the case of `CCCCCCCOC(=O)C(C(=O)OCCCCCCC)=C1SCCS1`, the lipophilicity (logP) was determined as 7.6.
For the compound `CCCOC(=O)C(C(=O)OCCC)=C1SCCS1`, the logP came to 3.38.
Compound `CC(C)(C)OC(=O)C(C(=O)OC(C)(C)C)=C1SCCS1` displayed a logP of 4.01.
For `CCOC(=O)C(C(=O)OC(C)C)=C1SCCS1`, the log partition coefficient (logP) came to 2.9.
`COC(=O)C(C(=O)OC)=C1SCCS1` gave a logP of 1.51.
Under `CCCCCOC(=O)C(C(=O)OCCCCC)=C1SCCS1` stands 5.6; under `CC(C)OC(=O)C(C(=O)OC(C)C)=C1SCCS1=O` (stereo not given), 1.6.
Compound `CCOC(=O)C(C(=O)OCC)=C1SCCS1` showed a logP of 2.45.

(Values after the SangsterLogP compilation.)
